Assay results: patent publication US11389415B2, “Methods of regulating cannabinoid receptor activity-related disorders and diseases” (The United States of America as represented by the …, priority 2012, dated 2022)
Like-named read-outs stand apart in the source and are kept apart here.

Key:
U87 = test: tumor cell growth, U87; details: Homo sapiens, U-87 MG, read-out: IC50 (uM), U87 (CNS)
MCF7 = test: tumor cell growth, MCF7; details: Homo sapiens, MCF7, read-out: IC50 (uM), MCF7 (Breast C)
A549 = test: tumor cell growth, A549; details: Homo sapiens, A549, read-out: IC50 (uM), A549 (NSCLC)
U251 = test: tumor cell growth, U251; details: Homo sapiens, U-251, read-out: IC50 (uM), U251 (CNS)
A172 = test: tumor cell growth, A172; details: Homo sapiens, A 172, read-out: IC50 (uM), A172 (CNS)
U118 = test: tumor cell growth, U118; details: read-out: IC50 (uM), U118 (CNS)
HEPG2 = test: tumor cell growth, HEPG2; details: Homo sapiens, HepG2, read-out: IC50 (uM), HEPG2 (Liver C)
GL261 = test: tumor cell growth, GL261; details: Mus musculus, GL261, read-out: IC50 (uM), GL261 (CNS)
LN-18 = test: tumor cell growth, LN-18; details: Homo sapiens, LN-18, read-out: IC50 (uM), LN-18 (CNS)
PANC-1 = test: tumor cell growth, PANC-1; details: Homo sapiens, PANC-1, read-out: IC50 (uM), PANC-1 (Pancreatic C)
Du-145 = test: tumor cell growth, Du-145; details: Homo sapiens, DU-145, read-out: IC50 (uM), Du-145 (Prostate C)
MDAMB231 = test: tumor cell growth, MDAMB231; details: Homo sapiens, MDA-MB-231, read-out: IC50 (uM), MDAMB231 (Breast C)
PC3 [1] = test: tumor cell growth (CTG), PC3; details: Homo sapiens
HT29 [2] = test: tumor cell growth (CTG), HT29; details: Homo sapiens
HT29 [3] = test: Thymidine (Thy) 96 well, HT29; details: Homo sapiens, read-out: IC50 (uM), HT29 (Colon Cancer)
HEP3B [4] = test: tumor cell growth (CTG), HEP3B; details: Homo sapiens, Hep3B
HCT116 [5] = test: tumor cell growth (CTG), HCT116; details: Homo sapiens
HCT116 [6] = test: Thymidine (Thy) 96 well, HCT116; details: Homo sapiens, read-out: IC50 (uM), HCT116 (Colon Cancer)
NCIH460 = test: Thymidine (Thy) 96 well, NCIH460; details: Homo sapiens, read-out: IC50 (uM), NCIH460 (NSCLC)
H460 = test: tumor cell growth (CTG), H460 / NCIH460; details: Homo sapiens
LN-229 = test: tumor cell growth (CTG), LN-229 / LN229; details: Homo sapiens
PC3 [7] = test: [3H]-Thymidine incorporation in 96-well plates (Thy), PC3; details: Homo sapiens, read-out: IC50 (uM), PC3 (Prostrate Cancer)
HEP3B [8] = test: [3H]-Thymidine incorporation in 96-well plates (Thy), HEP3B; details: Homo sapiens, Hep3B, read-out: IC50 (uM), HEP3B (Liver Cancer)
LN229 = test: [3H]-Thymidine incorporation in 96-well plates (Thy), LN229; details: Homo sapiens, read-out: IC50 (uM), LN229 (CNS Cancer)

SMILES: COc1cccc2c1C(=O)c1c(O)c3c(c(O)c1C2=O)C[C@@](O)(C(=O)CO)C[C@@H]3O[C@H]1C[C@H](N)[C@H](O)[C@H](C)O1 [Doxorubicin, reference compound]
- IC50 (U87): 0.21 µM
- IC50 (MCF7): 0.3 µM
- IC50 (A549): 0.11 µM
- IC50 (U251): 0.17 µM
- IC50 (A172): 0.46 µM
- IC50 (U118): 0.81 µM
- IC50 (HEPG2): 0.28 µM
- IC50 (GL261): 0.17 µM
- IC50 (LN-18): 0.53 µM
- IC50 (PANC-1): 2.97 µM
- IC50 (Du-145): 0.38 µM
- IC50 (MDAMB231): 0.68 µM
- IC50 (PC3 [1]; PC-3, 24 h, read-out: IC50 (uM), PC3 (Prostrate Cancer)): 3.02 µM
- IC50 (PC3 [1]; PC-3, 48 h, read-out: IC50 (uM), PC3 (Prostrate Cancer)): 0.93 µM
- IC50 (PC3 [1]; PC-3, 72 h, read-out: IC50 (uM), PC3 (Prostrate Cancer)): 0.91 µM
- IC50 (PC3 [1]; PC-3, read-out: IC50 (uM), PC3 (Prostate C)): 0.91 µM
- IC50 (HT29 [2]; HT-29, 48 h, read-out: IC50 (uM), HT29 (Colon Cancer)): 0.52 µM
- IC50 (HT29 [2]; HT-29, 72 h, read-out: IC50 (uM), HT29 (Colon Cancer)): 0.26 µM
- IC50 (HT29 [2]; HT-29, read-out: IC50 (uM), HT29 (Colon C)): 0.26 µM
- IC50 (HT29 [3]; HT-29, 24 h): 0.11 µM
- IC50 (HT29 [3]; HT-29, 48 h): 0.12 µM
- IC50 (HEP3B [4]; 48 h, read-out: IC50 (uM), HEP3B (Liver Cancer), 96 well CTG 2 days treatment): 0.52 µM
- IC50 (HEP3B [4]; 72 h, read-out: IC50 (uM), HEP3B (Liver Cancer), 384well CTG 3 days treatment −1): 0.43 µM
- IC50 (HEP3B [4]; 72 h, read-out: IC50 (uM), HEP3B (Liver Cancer), 384well CTG 3 days treatment −2): 0.35 µM
- IC50 (HEP3B [4]; read-out: IC50 (uM), HEP3B (Liver C), Table 6): 0.43 µM
- IC50 (HCT116 [5]; HCT-116, 24 h, read-out: IC50 (uM), HCT116 (Colon Cancer), 96 well CTG 1 day treatment): 0.21 µM
- IC50 (HCT116 [5]; HCT-116, 48 h, read-out: IC50 (uM), HCT116 (Colon Cancer), 96 well CTG 2 days treatment): 0.23 µM
- IC50 (HCT116 [5]; HCT-116, 72 h, read-out: IC50 (uM), HCT116 (Colon Cancer), 384well CTG 3 days treatment −1): 0.06 µM
- IC50 (HCT116 [5]; HCT-116, 72 h, read-out: IC50 (uM), HCT116 (Colon Cancer), 384well CTG 3 days treatment −2): 0.21 µM
- IC50 (HCT116 [5]; HCT-116, read-out: IC50 (uM), HCT116 (Colon C), Table 6): 0.06 µM
- IC50 (HCT116 [6]; HCT-116, 24 h): 0.12 µM
- IC50 (HCT116 [6]; HCT-116, 48 h): 0.14 µM
- IC50 (NCIH460; NCI-H460, 24 h): 0.09 µM
- IC50 (NCIH460; NCI-H460, 48 h): 0.03 µM
- IC50 (H460; NCI-H460, 24 h, read-out: IC50 (uM), NCIH460 (NSCLC), 96 well CTG 1 day treatment): 0.31 µM
- IC50 (H460; NCI-H460, 48 h, read-out: IC50 (uM), NCIH460 (NSCLC), 96 well CTG 2 days treatment): 0.12 µM
- IC50 (H460; NCI-H460, 72 h, read-out: IC50 (uM), NCIH460 (NSCLC), 384well CTG 3 days treatment −1): 0.02 µM
- IC50 (H460; NCI-H460, 72 h, read-out: IC50 (uM), NCIH460 (NSCLC), 384well CTG 3 days treatment −2): 0.11 µM
- IC50 (H460; NCI-H460, read-out: IC50 (uM), H460 (NSCLC), Table 6): 0.02 µM
- IC50 (LN-229; LN-229, 48 h, read-out: IC50 (uM), LN229 (CNS Cancer)): 1.7 µM
- IC50 (LN-229; LN-229, 72 h, read-out: IC50 (uM), LN229 (CNS Cancer)): 0.61 µM
- IC50 (LN-229; LN-229, read-out: IC50 (uM), LN-229 (CNS)): 0.61 µM
- IC50 (PC3 [7]; PC-3, 24 h): 0.04 µM
- IC50 (PC3 [7]; PC-3, 48 h): 0.28 µM
- IC50 (HEP3B [8]; 24 h): 0.04 µM
- IC50 (HEP3B [8]; 48 h): 0.02 µM
- IC50 (LN229; LN-229, 24 h): 0.1 µM
- IC50 (LN229; LN-229, 48 h): 0.07 µM
